Earlier results, collected in patent publication US10059696B2, “Process for preparing 1,3-dihydroimidazole-2-thione derivatives” (BIAL-PORTELA & CA, S.A., priority 2011, dated 2018).

Settings: able to cause central as well as peripheral effects

blood brain barrier (BBB) crossing: found to cross the blood brain barrier
SMILES: NCc1c[nH]c(=S)n1[C@H]1CCc2c(F)cc(F)cc2C1 [nepicastat]
